Tested on: female BALB/c mice
Test: Immunization of mice in presence of Freund's adjuvant, antibody responses in sera analyzed by glycan microarray
Assay type: in vivo
Method: To evaluate the immunogenicity of the meningococcal tetrasaccharide 1, two groups of six female BALB/c mice, six to eight weeks old, were immunized subcutaneously (s.c.) in presence of Freund's adjuvant (FA). Each mouse of the first group was immunized s.c. with 0.4 μg unconjugated tetrasaccharide 1 antigen in presence of Freund's adjuvant (priming with Freund's Complete Adjuvant, boosting with Freund's Incomplete Adjuvant, both Sigma). Each mouse of the second group received tetrasaccharide 1-CRM197 conjugate, whereby the amount of conjugate corresponded to 0.4 μg tetrasaccharide 1 antigen. Two weeks after initial immunizations, first boosting injection was performed with 4 μg tetrasaccharide 1 or the corresponding tetrasaccharide 1-CRM197 conjugate.
For all immunizations, antigen was diluted in sterile PBS to a total injection volume of 100 μL per mouse. Blood was collected at the tail vein and erythrocytes were separated from serum by centrifugation. All blood samples from the initial immunization study with FA were diluted with 10 μl sterile PBS before sera separation. Sera were collected in definited time intervals and IgG antibody responses were analyzed by microarray.
Tetrasaccharide 1 in three different concentrations (1, 0.5 and 0.1 mM), CRM197 (1, 0.5 and 0.1 μM) and bovine serum albumin (BSA)-spacer-GlcNAc conjugate (1, 0.5 and 0.1 μM) were dissolved in sodium phosphate buffer (50 mM, pH 8.5) and printed in triplicate robotically using a piezoelectric spotting device (S11, Scienion, Berlin, Germany) onto the surface of the microarray slides (NHS-activated glass slides; CodeLink). BSA-spacer-GlcNAc was used to assess immunogenicity against the spacer moiety of the conjugate. […]
The quenched array slides were blocked for 1 hour with 1% (w/v) BSA in PBS, then washed three times with PBS and dried by centrifugation. […] Then, slides were incubated with fluorescence-labeled detection antibody diluted in 1% BSA-PBS (w/v) for 1 hour at room temperature in a humid chamber. […]

CC(=O)NC1C(O)[C@H](O)C(CO)O[C@@H]1OC1C(O)[C@H](O)C([C@@H](O)CO)O[C@@H]1OC1C(O)[C@@H](O[C@@H]2C(O)C[C@](OCCCCCN)(C(=O)O)OC2[C@H](O)CO)OC([C@@H](O)CO)[C@H]1O (stereo partly drawn) [tetrasaccharide 1, 2-N-acetyl-2-deoxy-α-D-glucopyranosyl-(1→2)-L-glycero-α-D-manno-heptopyranosyl-(1→3)-L-glycero-α-D-manno-heptopyranosyl-(1→5)-2-(5-amino)pentyl-3-deoxy-α-D-manno-oct-2-ulopyranosidonic acid]
IgG antibody response, anti-tetrasaccharide 1 titers (fluorescence intensity) (1:80 sera dilution, after first boosting, Freund's adjuvant): relatively weak | Tetrasaccharide 1-specific IgG and IgM antibody responses in pooled sera (after first boosting with 4 μg (4. week), Freund's adjuvant): identified | IgG response one week after second boosting (second boost 4 μg antigen in week 8, read in week 9): marginal increase
